Our source for the OD, MIC and Activity values is ChEMBL document CHEMBL5505979, “Novel aminothiazoximone-corbelled ethoxycarbonylpyrimidones with antibiofilm activity to conquer Gram-negative bacteria through potential multitargeting effects” (Eur J Med Chem, 2024).

For experiment [1], the system named is Escherichia coli. As to the kind of experiment: Anti-bacterial activity against Escherichia coli ATCC 25922 assessed as growth inhibition by measuring optical density measured at 2 time of MIC in presence of 2 times of MIC of norfloxacin by Checkerboard assay (reference value: 0.128). Format: functional.
The next experiment deals with Staphylococcus aureus. Description: Anti-bacterial activity against methicillin-resistant Staphylococcus aureus ATCC 43300 assessed as inhibition of bacterial growth. Format: functional. The settings on record: Staphylococcus aureus, ATCC 43300; read-out: MIC.
In experiment [2] the test system is Escherichia coli. Description: Anti-bacterial activity against Escherichia coli ATCC 25922 assessed as growth inhibition by measuring optical density measured at 4 time of MIC in presence of 1/2 times of MIC of norfloxacin by Checkerboard assay (reference value: 0.125). Type of experiment: functional.
Experiment [3] relates to Escherichia coli. As to the kind of experiment: Anti-bacterial activity against Escherichia coli ATCC 25922 assessed as growth inhibition by measuring optical density measured at 1 time of MIC in presence of 1/4 times of MIC of norfloxacin by Checkerboard assay (reference value: 0.125). Type of experiment: functional.
The test system of the next experiment is Acinetobacter baumannii. Description: Reduction in metabolic activity of Acinetobacter baumannii assessed as biomass of the fluorescent pink change to non-fluorescent blue. Type of experiment: functional, organism-based.
The next experiment has as its system Calf thymus DNA. As to the kind of experiment: Binding affinity to calf thymus DNA assessed as compound/DNA binary complex by measuring increase in absorption at 260 nm by UV-vis/fluorescence spectroscopy. Type of experiment: nucleic-acid assay. The settings on record: Bos taurus.

SMILES strings stand for the structures. Converted amounts (≈) assume the structure as drawn. The source made the active and inactive calls.

Turning to `CCCCc1nc(Cl)c(C2NC(=O)NC(CN3CCN(C(=O)/C(=N/OC)c4csc(N)n4)CC3)=C2C(=O)OCC)[nH]1` (stereo unspecified), the OD in the experiment with Escherichia coli [1] is 0.052; in the experiment on Escherichia coli [2], 0.052; with Escherichia coli [3], 0.111. Further, the MIC (as a rule, the smallest concentration in the dilution series that meets the test's criterion for growth inhibition) in the experiment with Staphylococcus aureus was found to be 13 µM (≈ 7.91 µg/mL). For the same molecule, the result in the experiment on Acinetobacter baumannii and in the experiment with Calf thymus DNA was Active.
